# Measurements as given in patent US20240051997A1, “SAP AND PEPTIDOMIMETIC COMPOSITIONS FOR REDUCING SYMPTOMS OF INFLAMMATION” (Arch Biosurgery, Inc., priority 2018, published 2024).
# System: olfactory bulb inflammation, GFAP (reactive astrocytes)
# Experiment: Olfactory bulb injury model (transection), GFAP immunohistochemistry
# Format: in vivo, Sprague-Dawley rat
# Conditions: rat olfactory bulb, days 2-14
# Experimental: The anti-inflammatory effects of EARA-16 (SEQ ID NO: 89) and RADA-16 (SEQ ID NO: 1) were examined using an olfactory bulb injury model. Levels of inflammation were assayed through immunohistochemical staining for glial fibrillary acidic protein (GFAP) as an indicator of reactive astrocytes.
# In brief, the olfactory bulbs of adult Sprague-Dawley rats were unilaterally transected and the cuts were then treated with either saline as a control, or one of RADA-16 (SEQ ID NO: 1) or EARA-16 (SEQ ID NO: 89) solutions (each used at 1% and 3%). The SAP materials were injected into the cuts post transection at the time of surgery. After 2, 7 or 14 days, the animals were sacrificed.
# A more detailed protocol is as follows: adult Sprague-Dawley rats were anesthetized with a mixture of ketamine (80 mg/kg, i. p.) and xylazine (8 mg/kg, i. p.). The head was shaved and a thorough disinfection of the head surface was carried out with iodine 5% solution. The bilateral olfactory bulbs were exposed by drilling two burr holes (2 mm diameter, 8 mm anterior to the bregma) on either side at a distance of 2 mm from the midline of the frontal bone in the region overlying the olfactory bulbs. A cataract knife with a blunted end and one sharpened edge was used for surgery. The cut was performed on the middle of olfactory bulb. The blunted edge of the knife was inserted along the middle line of the olfactory bulb to prevent damage of the sagittal sinus, until the tip of the knife lightly touched the bottom of the brain without penetration of the dura. The knife was then moved laterally to transect the bulb until it reached the lateral edge of the hole. The knife was then rotated and pulled out to have a complete cut of the bulb at lateral side. This procedure was modified from the method described in several previous studies attempting to isolate the olfactory bulb from other parts of the brain (Ahrens & Freeman 2001; Allison 1953; Chaput 1983; Freeman 1968; Koliatsos et al 2004; Munirathinam et al 1997).
# After performing the cut, one of the solutions was used to treat the injury site: either 10 μl saline (control group) or the EARA-16 (SEQ ID NO: 89) or RADA-16 (SEQ ID NO: 1) SAP (at a concentration of 1% and 3%) was injected evenly into the wound site using a self-constructed hydraulic pressure injection system without micro syringe. This technique was modified from similar methods as described by Bullier and others (Bullier et al 1980; Fish & Rhoades 1981; Kratskin et al 1997; Meyers & Snow 1981; Price et al 1977; Shipley 1982). Care was taken to control the speed of the injection of the saline or the SAP. After the injection, the wound was closed and the animals were placed in a warm place for recovery before they were brought back to their home cages. […]
sequence,measurement,setting,value
"RADARADARADARADA [RADA-16, self-assembling peptide]",time course of reactive astrocyte activation / inflammation (GFAP),1% solution,increased activation of reactive astrocytes on day 7 which subsequently reduced by day 14
same,time course of reactive astrocyte activation / inflammation (GFAP),3% solution,increased activation of reactive astrocytes on day 7 which subsequently reduced by day 14
